# Laboratory results taken from patent US20110136728A1, “METHODS OF INCREASING BONE FORMATION USING LEPTIN-RELATED PEPTIDES” (priority 2009, published 2011).
# “Also recorded” adds a separate entry of the source. Non-standard residues stand in square brackets, D forms with d. Residues, ends and D or L forms follow the SMILES beside them.
# How the values were obtained:
# [1] = test system: male C57BL/6J wild type mice; assay: Oral delivery (gavage) in ad libitum fed wild type mice: body weight, food and water intake, serum glucose, serum osteocalcin; format: in vivo, mouse
# Method: (§1) Six week-old male C57BL/6J wild type and ob/ob mice were obtained from Jackson Laboratories (Bar Harbor, Me., USA). The animals were housed individually polycarbonate cages fitted with stainless steel wire lids and air filters, and supported on ventilated racks (Thoren Caging Systems, Hazelton, Pa., USA) in the Albany Medical College Animal Resources Facility. The mice were maintained at a constant temperature (24° C.) with lights on from 07:00 to 19:00, and allowed food and water ad libitum for 6 days following arrival. During the test period, mice were fed ad libitum or calorie restricted to 60% of normal. Water intake was allowed ad libitum.
# (§2) On day 1 of the study, and on each day thereafter, a water bottle containing 200 ml of water was added to each cage between 09:00 and 10:00 h. Mice fed ad libitum were given 200 g of pelleted rodent diet (Prolab Rat, Mouse, Hamster 3000, St. Louis, Mo.; 22% crude protein, 5% crude fat, 5% fiber, 6% ash, 2.5% additional minerals) between 09:00 and 10:00 h each day. The mice were weighed once daily between 09:00 and 10:00 h on an Acculab V-333 electronic balance (Cole-Parmer, Vernon Hills, Ill., USA). Calorie-restricted wild type and ob/ob mice received 60% of normal daily intake. Twenty four hours later, food and water remaining in the cages was measured to the nearest 0.1 g and 0.1 ml, respectively. To assure fasting glucose levels on days in which blood glucose was measured, food was removed from the cages between 09:00 and 10:00 h, and replaced immediately before the beginning of the dark cycle.
# (§3) Mouse [D-Leu-4]OB3 was prepared commercially as a C-terminal amide by Bachem (Torrance, Calif., USA). The peptide was dissolved in 0.3% Intravail A3® (Aegis Therapeutics, San Diego, Calif. USA) reconstituted in water, and administered by gavage once daily for 10 days at a concentration of 1 mg/200 μl immediately before the start of the dark cycle. Is has previously been shown that this is the optimum concentration of mouse [D-Leu-4]-OB3 and its related bioactive peptide amides, for regulating energy expenditure, glucose levels, and insulin sensitivity in two genetically obese mouse models (see Rozhayskaya-Arena M. et al., Endocrinology 141:2501-2517 (2000); Grasso P. et al. Regulatory Pep. 101:123-129 (2001); Grasso P. et al., Diabetes 48:2204-2209 (1999), Grasso P. et al., Endocrinology 138:1413-1418 (1997); Grasso P. et al., Regulatory Peptides 85:93-100 (1999); and Grasso P. et al., Diabetes 48:2204-2209 (1999)). Vehicle injected control mice received 200 ul of Intravail A3® only.
# (§4) Initial blood samples were drawn by snipping the end of the tail of each mouse at the beginning of the study (day 0); subsequent samples were obtained by gently removing the scab. Blood was taken 1 h before the onset of the dark period at the beginning of the study, and after 2, 4, 6, 8, and 10 days of treatment. The blood was applied to a test strip, and glucose levels were measured with a Glucometer Elite glucose meter (Bayer, Elkhart, Ind., USA).
# (§5) At the end of the study, the mice were anesthetized with isoflurane (5%) and exsanguinated by cardiac puncture. Euthanasia was confirmed by cervical dislocation. The blood was collected in sterile nonheparinized plastic centrifuge tubes and allowed to stand at room temperature for 1 h. The clotted blood was rimmed from the walls of the tubes with sterile wooden applicator sticks. Individual serum samples were prepared by centrifugation for 30 min at 2600×g in an Eppendorf 5702R, A-4-38 rotor (Eppendorf North America, Westbury, N.Y., USA). The serum samples in each experimental group (n=6) were pooled and stored frozen until assayed for osteocalcin content.
# (§6) Serum osteocalcin in the pooled samples was assayed in triplicate with a mouse osteocalcin ELISA kit obtained from Biomedical Technologies, Inc. (Stoughton, Mass., USA) according to the instructions supplied by the manufacturer. […]
# male C57BL/6J ob/ob mice = assay: Oral delivery (gavage) in ad libitum fed ob/ob mice: body weight, food and water intake, serum glucose, serum osteocalcin; format: in vivo, mouse
# Method: as §1, §2, §3, §4, §5, §6
# [2] = test system: calorie restricted male C57BL/6J wild type mice; assay: Oral delivery (gavage) in calorie restricted (40%) wild type mice: body weight, serum glucose, serum osteocalcin; format: in vivo, mouse
# Method: as §1, §2, §3, §4, §5, §6
# [3] = test system: calorie restricted male C57BL/6J ob/ob mice; assay: Oral delivery (gavage) in calorie restricted (40%) ob/ob mice: body weight, serum glucose, serum osteocalcin; format: in vivo, mouse
# Method: as §1, §2, §3, §4, §5, §6
# [4] = Observation of toxic side effects in treated animals; format: in vivo; conditions: treated mice or rats
# [5] = 1 mg/day, 10 days, gavage in Intravail
# [6] = after 10 days, 1 mg/day gavage in Intravail
# [7] = day 0, 1 mg/day, 10 days, gavage in Intravail
# [8] = ob/ob, ad libitum fed, 1 mg/day, 10 days, gavage in Intravail
# [9] = ob/ob, ad libitum fed, 10 days gavage
# [10] = ob/ob, ad libitum fed, oral delivery
smiles,measurement,setting,value
CC(C)C[C@@H](NC(=O)[C@H](CO)NC(=O)[C@H](CS)NC(=O)[C@@H](N)CO)C(=O)N1CCC[C@H]1C(=O)N[C@@H](CCC(N)=O)C(=O)N[C@H](C(N)=O)[C@@H](C)O [mouse [D-Leu-4]-OB3] (H-SCS[dL]PQT-NH2; N-terminus assumed),Body weight (% of initial),[1]; [5],95.6 ± 0.5 % of initial
same,Final body weight,[1]; [5],21.6 ± 0.7 g
same,Serum osteocalcin,[1]; [5],246.6 ± 6.0 ng/mL
same,daily food intake compared to Intravail treated controls,[1]; 10 days gavage,not associated with any significant difference in daily food intake
same,serum glucose after treatment,[1]; 10 days gavage,significantly (P<0.001) reduced
same,serum osteocalcin levels compared to Intravail treated controls,[1]; 10 days gavage,essentially the same; also recorded: slightly elevated
same,water intake compared to Intravail treated controls,[1]; 10 days gavage,essentially the same; also recorded: no significant difference in water intake
same,loss of initial body weight,[1]; after 10 days gavage,4.4%
same,Final serum glucose,[1]; [6],124.5 ± 24.6 mg/dL
same,Initial serum glucose,[1]; day 0,173.3 ± 7.3 mg/dL
same,Initial body weight,[1]; [7],22.6 ± 0.8 g
same,reduction of body weight gain,[1]; oral delivery,4.4%
same,reduction of food intake,[1]; oral delivery,6.8%
same,reduction of serum glucose,[1]; oral delivery,28.2%
same,serum osteocalcin relative to wild type control mice,male C57BL/6J ob/ob mice; ob/ob mice,significantly elevated serum osteocalcin to levels higher than those seen in wild type control mice
same,Body weight (% of initial),male C57BL/6J ob/ob mice; [8],96.3 ± 0.4 % of initial
same,Final body weight,male C57BL/6J ob/ob mice; [8],34.2 ± 0.9 g
same,Serum osteocalcin,male C57BL/6J ob/ob mice; [8],300.5 ± 7.0 ng/mL
same,daily food intake compared to Intravail alone,male C57BL/6J ob/ob mice; [9],significantly (P<0.001) less
same,daily water consumption compared to Intravail treated counterparts,male C57BL/6J ob/ob mice; [9],significantly (P<0.05) less water per day
same,serum glucose after treatment,male C57BL/6J ob/ob mice; [9],"significantly (P<0.001) reduced serum glucose levels, but not to normal levels"
same,loss of initial body weight,"male C57BL/6J ob/ob mice; ob/ob, ad libitum fed, after 10 days gavage",3.7%
same,Final serum glucose,"male C57BL/6J ob/ob mice; ob/ob, ad libitum fed, after 10 days, 1 mg/day gavage in Intravail",380.5 ± 24.3 mg/dL
same,Initial serum glucose,"male C57BL/6J ob/ob mice; ob/ob, ad libitum fed, day 0",503.9 ± 19.6 mg/dL
same,Initial body weight,"male C57BL/6J ob/ob mice; ob/ob, ad libitum fed, day 0, 1 mg/day, 10 days, gavage in Intravail",35.5 ± 0.8 g
same,reduction of body weight gain,male C57BL/6J ob/ob mice; [10],11.6%
same,reduction of food intake,male C57BL/6J ob/ob mice; [10],16.5%
same,reduction of serum glucose,male C57BL/6J ob/ob mice; [10],24.4%
same,reduction of water intake,male C57BL/6J ob/ob mice; [10],22.4%
same,Body weight (% of initial),[2]; [5],90.0 ± 0.8 % of initial
same,Final body weight,[2]; [5],20.3 ± 0.7 g
same,Serum osteocalcin,[2]; [5],216.6 ± 0.4 ng/mL
same,"serum osteocalcin, effect on decrease caused by calorie restriction",[2]; 10 days gavage,prevented this decrease; also recorded: significantly (P<0.001) elevated serum osteocalcin levels to levels Seen in Intravail® treated wild type mice fed ad libitum
same,weight loss compared to calorie restriction with Intravail alone (words),[2]; 10 days gavage,did not enhance this weight loss
same,weight loss compared to calorie restriction with Intravail alone (words),"[2]; 10 days gavage, listed as mouse [D-leu-4]-OB3",essentially the same
same,Final serum glucose,[2]; [6],134.8 ± 14.8 mg/dL
same,Initial serum glucose,[2]; day 0,186.7 ± 36.7 mg/dL
same,Initial body weight,[2]; [7],22.6 ± 0.8 g
same,Body weight (% of initial),[3]; [5],90.0 ± 0.8 % of initial
same,Final body weight,[3]; [5],30.8 ± 0.6 g
same,Serum osteocalcin,[3]; [5],290.1 ± 3.2 ng/mL
same,serum glucose compared to calorie restriction alone,[3]; 10 days gavage,normalized levels; also recorded: significantly (P<0.001) reduced serum glucose levels to levels Seen in wild type mice allowed food ad libitum
same,"serum osteocalcin, effect on decrease caused by calorie restriction",[3]; 10 days gavage,significantly elevated serum osteocalcin levels; also recorded: prevented this decrease
same,weight loss compared to calorie restriction with Intravail alone (words),[3]; 10 days gavage,did not enhance this weight loss; also recorded: essentially the same
same,elevation of serum osteocalcin,[3]; after 10 days of treatment,93.4%
same,Final serum glucose,[3]; [6],176.5 ± 32.8 mg/dL
same,Initial serum glucose,[3]; day 0,480.2 ± 36.7 mg/dL
same,Initial body weight,[3]; [7],34.2 ± 0.4 g
same,toxic side effects (words),[4],lack of toxicity
same,toxic side effects (words),[4]; listed as [D-Leu-4]-OB3,no obvious toxic side effects have ever been observed
